Test results reported in US9464326B2, “Total and phosphorylated IL-1 receptor-associated kinase-1 and IL-1 receptor-associated kinase-4 as a biomarker for cancer progression and chemotherapy resistance” (University of Maryland, Baltimore, priority 2012, dated 2016).

Assays:
SupT1 = assay: Proliferation (3H-thymidine) of SupT1; format: cell-based, human; conditions: SupT1
Description: (§1) CCRF-CEM, CEM/C1, CEM/C2, CEM-C7, Jurkat, Loucy, Molt-4, HSB-2, SUP-T1, Hut 78, HH, Hut 102, MO, and H9 T-leukemia and T-lymphoma cell lines were purchased from the American Type Culture Collection (Manassas, Va., USA). All of the cell lines were initially expanded and cryopreserved within one month of receipt. Cells were typically used for 6 months at which time a fresh vial of cryopreserved cells was used. Total T cells from healthy donors were isolated via negative selection followed by positive selection using a CD3+ selection kit (Invitrogen, Carlsbad, Calif.). T cells were isolated from patients with T-ALL bone marrow or peripheral blood samples containing more than 70% leukemia cells using a CD2+ isolation kit (STEMCELL Technologies, Vancouver, Canada). All tissues were collected under institutional IRB-approved protocols and all participants gave written informed assent/consent. For in vitro experiments, T-ALL cells were cultured in AIM-V medium supplemented with 20% human AB serum in the presence of recombinant human stem cell factor (50 ng/mL; Amgen, Thousand Oaks, Calif.), insulin (20 nM; Sigma-Aldrich, St Louis, Mo., USA) and IL-7 (50 ng/mL; R&D Systems, Minneapolis, Minn., USA). In other experiments, protein lysate was collected using the Full Moon Biosystems (Sunnyvale, Calif., USA) buffer prior to protein examination by western blot or protein array.
(§2) Cells were cultured in a 96-well plate (Corning Costar, Corning, N.Y., USA) with various concentrations of TLR ligands 1-9, starting at 10 μg/ml, in a final volume of 200 ul. TLR ligands were diluted 2-fold. Cell lines (25-40×10^3/well) were cultured for 54 hours, whereas fresh patient-derived T-ALL cells (200×10^3/well) were cultured for 30 hours prior to adding [^3H]-thymidine for 18 hours. After this time point, cells were harvested with a Packard Filter-Mate-96 cell harvester (Perkin Elmer, Waltham, Mass., USA) and counted on Packard Top Count-NXT (Perkin Elmer, Waltham, Mass., USA). Results were expressed as average counts per minute (cpm). In some experiments CCRF-CEM cells were pre-treated with TLR1-TLR2 ligand (Pam3CysK4; 2.5 ug/ml) for 48 hrs, washed, and then cultured in the presence of varying concentrations of FBS. Forty-eight hours later, proliferation (±SD) was determined by ^3H-thymidine incorporation. Alternatively, apoptosis was measured by flow cytometry after staining cells with Annexin-V (BD Pharmingen, San Diego, Calif., USA) and propidium iodide (Sigma). Cell number was counted under microscopy by staining cells with trypan blue.
(§3) The following TLR ligands were purchased from Invivogen (San Diego, Calif., USA): tripalmitoyl-S-(bis(palmitoyloxy)propyl)-Cys-Ser-(Lys)3-Lys (TLR1-2); Poly I:C (TLR3); ultrapure S. Minnesota Lipopolysaccharide (TLR4); S. typhimurium flagellin (TLR5); FSL-1 (TLR2/6); Imiquimod (TLR7); ssRNA40/Lyovec (TLR8); CpG-ODN 2006 (TLR9).

[1] = tested on: stage IA cutaneous T-lymphoma; conditions: topical cream containing 5% Imiquimod; cited from earlier work
HH = assay: Proliferation (3H-thymidine) of HH; format: cell-based, human; conditions: 3H-thymidine uptake, 72 h
Description: as §1, with “In other experiments, protein lysate was collected using the Full Moon Biosystems (Sunnyvale, Calif., USA) buffer prior to protein examination by western blot or protein array.” left out
(§4) Cells were cultured in a 96-well plate (Corning Costar, Corning, N.Y., USA) with various concentrations of TLR ligands 1-9, starting at 10 μg/ml, in a final volume of 200 ul. […] After this time point, cells were harvested with a Packard Filter-Mate-96 cell harvester (Perkin Elmer, Waltham, Mass., USA) and counted on Packard Top Count-NXT (Perkin Elmer, Waltham, Mass., USA). Results were expressed as average counts per minute (cpm). […] Forty-eight hours later, proliferation (±SD) was determined by ^3H-thymidine incorporation. Alternatively, apoptosis was measured by flow cytometry after staining cells with Annexin-V (BD Pharmingen, San Diego, Calif., USA) and propidium iodide (Sigma). Cell number was counted under microscopy by staining cells with trypan blue. […]

Primary T-cells Non-Act = assay: Proliferation (3H-thymidine) of non-activated primary T-cells; format: cell-based, human; conditions: 3H-thymidine uptake, 72 h
Description: as §1, with “In other experiments, protein lysate was collected using the Full Moon Biosystems (Sunnyvale, Calif., USA) buffer prior to protein examination by western blot or protein array.” left out
as §4

Jurkat = assay: Proliferation (3H-thymidine) of Jurkat; format: cell-based, human
Description: as §1
as §2, with “blue. […]” for “blue.”

Hut 102 = assay: Proliferation (3H-thymidine) of Hut 102; format: cell-based, human; conditions: 3H-thymidine uptake, 72 h
Description: as §1, with “In other experiments, protein lysate was collected using the Full Moon Biosystems (Sunnyvale, Calif., USA) buffer prior to protein examination by western blot or protein array.” left out
as §4

CCRF-CEM = assay: Proliferation (3H-thymidine) of CCRF-CEM; format: cell-based, human; conditions: 3H-thymidine uptake, 72 h
Description: as §1, §2, §3

H9 = assay: Proliferation (3H-thymidine) of H9; format: cell-based, human; conditions: H9; 3H-thymidine uptake, 72 h
Description: as §1, §2, §3

CEM-C2 = assay: Proliferation (3H-thymidine) of CEM-C2; format: cell-based, human; conditions: 3H-thymidine uptake, 72 h
Description: as §1
as §2, with “blue. […]” for “blue.”

CEM-C1 = assay: Proliferation (3H-thymidine) of CEM-C1; format: cell-based, human; conditions: 3H-thymidine uptake, 72 h
Description: as §1
as §2, with “blue. […]” for “blue.”

Loucy = assay: Proliferation (3H-thymidine) of Loucy; format: cell-based, human; conditions: 3H-thymidine uptake, 72 h
Description: as §1
as §2, with “blue. […]” for “blue.”

[2] = tested on: Primary T-cells Activated; assay: Proliferation (3H-thymidine) of activated primary T-cells; format: cell-based, human; conditions: Primary T-cells, Activated
Description: as §1, §2, §3

CEM-C7 = assay: Proliferation (3H-thymidine) of CEM-C7; format: cell-based, human; conditions: 3H-thymidine uptake, 72 h
Description: as §1, §2, §3

MO = assay: Proliferation (3H-thymidine) of MO; format: cell-based, human; conditions: 3H-thymidine uptake, 72 h
Description: as §1, with “In other experiments, protein lysate was collected using the Full Moon Biosystems (Sunnyvale, Calif., USA) buffer prior to protein examination by western blot or protein array.” left out
as §4

Molt-4 = assay: Proliferation (3H-thymidine) of Molt-4; format: cell-based, human; conditions: 3H-thymidine uptake, 72 h
Description: as §1, with “In other experiments, protein lysate was collected using the Full Moon Biosystems (Sunnyvale, Calif., USA) buffer prior to protein examination by western blot or protein array.” left out
as §4

HSB-2 = assay: Proliferation (3H-thymidine) of HSB-2; format: cell-based, human
Description: as §1, §2, §3

Hut-78 = assay: Proliferation (3H-thymidine) of Hut-78; format: cell-based, human; conditions: 3H-thymidine uptake, 72 h
Description: as §1, with “In other experiments, protein lysate was collected using the Full Moon Biosystems (Sunnyvale, Calif., USA) buffer prior to protein examination by western blot or protein array.” left out
as §4

A375 melanoma cells [3] = assay: A375 melanoma xenograft model; conditions: IRAK-1,-4 inhibitor 35 mg/kg intratumorally, vinblastine 0.25 mg/kg i.p.; control 17 days
Experimental: (A-B) NSG mice (n=5) were injected subcutaneously with A375 melanoma cells. When tumors reached a size of approximately 50 mm^2 mice remained untreated or injected intraperitoneally with vinblastine mg/kg; administered every 2 days for 10 days), or peritumorally with IRAK-1,-4 inhibitor (35 mg/kg), or vinblastine plus IRAK.-1,-4 inhibitor. Tumor sizes were calculated by measuring perpendicular by longitudinal diameter;*, P<0.05. Mouse survival data were analyzed using the exact log-rank test;*, P<0.05, **P<0.001.
NOD.Cg-Prkdc^scid Il2rg^tmWJZ; SzJ IL2RG (NSG) mice (Jackson Laboratories, Bar Harbor, Me.) were subcutaneously (s.c.) injected with 2.5×10^6 A375 melanoma cells delivered in PBS. […] When tumors reached a size of approximately 50 mm^2 mice were injected intratumorally (i.t.) with 35 mg/kg of IRAK-1,-4 inhibitor or an equal volume of vehicle (DMSO). Mice were intraperitoneally (i.p.) injected with vinblastine (0.25 mg/kg) every 2 days for 5 days starting on the same day that mice received with IRAK-1,-4 inhibitor. Tumor sizes were analyzed using a mixed model approach for repeated measurements and mouse survival data were analyzed with the exact log-rank test.

A375 melanoma cells [4] = assay: Western blot of cleaved PARP and caspase-3; format: cell-based, human; conditions: single agent alone, 48 hrs, FIG. 8D
Experimental: FIG. 8. […] (A) A375 and Malme-3M melanoma cells were cultured with or without 2.5 μM of IRAK-1,-4 and in the presence varying concentrations of vinblastine, cisplatin or 5′ Fluorouracil. Forty-eight hours later apoptosis was evaluated by staining cells with annexin-V and propidium iodide and analyzed by flow cytometry. (B) A375 cells were transfected via electroporation with siRNA-IRAK-1,-4. IRAK-1 protein levels were examined by Western blotting. […], A375-psiRNA-hIRAK-1, A375-psiRNA-hIRAK-4, or cells expressing both psiRNA-hIRAK-1 and -4 were cultured in the presence of vinblastine (100 nmol/L) for 48 hours and apoptosis was examined by flow cytometry. (C) A375 melanoma cells were cultured in the presence of vehicle alone (DMSO) or various concentrations of IRAK-1,-4. Forty-eight hours later cell lysates were used to analyze the expression of levels of cleaved PARP or caspase-3 by Western blots. (D) A375 melanoma cells were cultured with or without 2.5 μM of IRAK.-1,-4 and in the presence or absence of vinblastine for 48 hrs. PARP and caspase-3 levels were determined by Western blot.
Total cell extracts were prepared from melanoma cells. […] Melanoma tissue arrays were purchased from US Biomax, Inc (Rockville, Md.). For immunohistochemical staining samples were stained with mouse monoclonal anti-human phosphor-IRAK.-4 antibody (Abnova; dilution, 3.5 μg/ml) or normal mouse serum. Tissue histology sections (5-μm-thick) were deparaffinized, hydrated, heated in boiling 10 mmol/L sodium citrate (pH 6.0), for antigen retrieval, for 30 min and washed in Tris buffer. Peroxide blocking was done with 3% […] in methanol at room temperature for 15 min, followed by 10% fetal bovine serum in TBS-t for 30 min at room temperature. Primary antibody incubation was done overnight at 4° C. Secondary antibody incubation with horse anti-mouse (1:200; Vector Laboratories, Burlingame, Calif.) was done for 1 hr, followed by application of diaminobenzidine chromogen for 5 min. The slides were then counterstained with hematoxylin and topped with a coverslip. IHC specimens were analyzed using “quick score” system in which the intensity of the immunohistochemical reaction was scored by multiplying the intensity 1 (weak), 2 (moderate), and 3 (strong) and the proportion of cells staining positively 0 (<10%), 1 (10-25%), 2 (26-50%), 3 (51-75%) or 4 (>75%).

In the case of `CC(C)Cn1cnc2c(N)nc3ccccc3c21` [Imiquimod], the “Proliferative effects of TLR ligands” value (SupT1; 3H-thymidine uptake, 72 h) is listed as “− (reduced proliferation)”, the “TLR ligand concentration in parentheses below the symbol” value (“TLR ligand concentration” for short) (SupT1; no unit in table (μg/ml)) is listed as “(0.6)” and the treatment outcome [1] is listed as “successfully treated”. For the same compound, the “Proliferative effects of TLR ligands” value (HH) was “∘”, the “Proliferative effects of TLR ligands” value (Primary T-cells Non-Act) was “∘” and the “Proliferative effects of TLR ligands” value (Jurkat; 3H-thymidine uptake, 72 h) was “− (reduced proliferation)”. The “TLR ligand concentration” value (Jurkat; no unit in table (μg/ml)) was “(10)”, the “Proliferative effects of TLR ligands” value (Hut 102) was “∘” and the “Proliferative effects of TLR ligands” value (CCRF-CEM) was “∘”. The “Proliferative effects of TLR ligands” value (H9) was “∘”, the “Proliferative effects of TLR ligands” value (CEM-C2) was “∘” and the “Proliferative effects of TLR ligands” value (CEM-C1) was “∘”. The “Proliferative effects of TLR ligands” value (Loucy) was “∘”, the “Proliferative effects of TLR ligands” value ([2]; 3H-thymidine uptake, 72 h) was “− (reduced proliferation)” and the “TLR ligand concentration” value ([2]; no unit in table (μg/ml)) was “(5)”. The “Proliferative effects of TLR ligands” value (CEM-C7) was “∘”, the “Proliferative effects of TLR ligands” value (MO) was “∘” and the “Proliferative effects of TLR ligands” value (Molt-4) was “∘”. For the same compound, the “Proliferative effects of TLR ligands” value (HSB-2; 3H-thymidine uptake, 72 h) was “− (reduced proliferation)”, the “TLR ligand concentration” value (HSB-2; no unit in table (μg/ml)) was “(1.2)” and the “Proliferative effects of TLR ligands” value (Hut-78) was “∘”.

For `CC[C@]1(O)C[C@@H]2CN(CCc3c([nH]c4ccccc34)[C@@](C(=O)OC)(c3cc4c(cc3OC)N(C)[C@H]3[C@@](O)(C(=O)OC)[C@H](OC(C)=O)[C@]5(CC)C=CCN6CC[C@]43[C@@H]65)C2)C1` [vinblastine], the median survival (A375 melanoma cells [3]) was 22 days and the “levels of cleaved PARP and caspase-3” value (A375 melanoma cells [4]) was “little effect”.
